The source of these data is US8952157B2, “Apoptosis-inducing agents for the treatment of cancer and immune and autoimmune diseases” (AbbVie Inc., priority 2008, dated 2015).

Chain of GST-Bcl-2 (P10415 whole entry): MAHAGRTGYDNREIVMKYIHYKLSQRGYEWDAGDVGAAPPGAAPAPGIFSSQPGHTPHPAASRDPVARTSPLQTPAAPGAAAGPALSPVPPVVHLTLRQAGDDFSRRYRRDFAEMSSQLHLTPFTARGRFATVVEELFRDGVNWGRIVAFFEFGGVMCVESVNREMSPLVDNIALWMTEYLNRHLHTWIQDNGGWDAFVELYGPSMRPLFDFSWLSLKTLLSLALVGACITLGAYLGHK

One test has as its target GST-Bcl-2 (Homo sapiens (Human), UniProt P10415). Put plainly: Time Resolved-Fluorescence Resonance Energy Transfer (TR-FRET) Bcl-2 binding assay.
Conditions: not given
In outline: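 Ki values derived from TR-FRET displacement of F-Bak peptide from GST-Bcl-2, detected with Tb-labelled anti-GST antibody (ex 340, em 520/495 nm). Compound dilution series started at 50 μM (2× starting concentration); room-temperature incubation 3 hours.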
Background: Time-resolved FRET reads energy transfer from a long-lived donor to a nearby acceptor.
One may read the Ki as a dissociation constant, usually derived from enzyme kinetics or from competition with a known ligand. Lower therefore signals a stronger hold on the target. Regarding `CC1(C)CCC(CN2CCN(c3ccc(C(=O)NS(=O)(=O)c4ccc(N[C@H]5CC[C@H](N6CCOCC6)CC5)c([N+](=O)[O-])c4)c(Oc4cccc(Cl)c4)c3)CC2)=C(c2ccc(Cl)cc2)C1` [Example 205, Trans-2-(3-chlorophenoxy)-4-(4-{[2-(4-chlorophenyl)-4,4-dimethylcyclohex-1-en-1-yl]methyl}piperazin-1-yl)-N-({4-[(4-morpholin-4-ylcyclohexyl)amino]-3-nitrophenyl}sulfonyl)benzamide], the affinity corresponds to a Ki of 0.153 nM.

Staying with this test, now noted: GST-Bcl-2 1 nM, F-Bak peptide probe 100 nM, Tb-anti-GST antibody 1 nM; Ki by Wang's equation.
The compound `CC1(C)CCC(CN2CCN(c3ccc(C(=O)NS(=O)(=O)c4ccc(NCC5CCOCC5)c([N+](=O)[O-])c4)c(Oc4cc(NC(=O)OC(C)(C)C)nc(NC(=O)OC(C)(C)C)c4)c3)CC2)=C(c2ccc(Cl)cc2)C1` [Example 373, 4-(4-{[2-(4-chlorophenyl)-4,4-dimethylcyclohex-1-en-1-yl]methyl}piperazin-1-yl)-2-[(2,6-Bis-tert-butoxycarbonylamino-pyridin-4-yl)oxy]-N-({3-nitro-4-[(tetrahydro-2H-pyran-4-ylmethyl)amino]phenyl}sulfonyl)benzamide] yielded a Ki of 1200 nM.

For the compound `CC1(C)CCC(CN2CCN(c3ccc(C(=O)NS(=O)(=O)c4ccc(NN5CCS(=O)(=O)CC5)c([N+](=O)[O-])c4)c(Oc4cc5cc[nH]c5cc4F)c3)CC2)=C(c2ccc(Cl)cc2)C1` [Example 331, 4-(4-{[2-(4-chlorophenyl)-4,4-dimethylcyclohex-1-en-1-yl]methyl}piperazin-1-yl)-N-({4-[(1,1-dioxidothiomorpholin-4-yl)amino]-3-nitrophenyl}sulfonyl)-2-[(6-fluoro-1H-indol-5-yl)oxy]benzamide], the affinity, expressed as Ki, was 0.238 nM.

In turn, `CC(C)N1CCC(Nc2ccc(S(=O)(=O)NC(=O)c3ccc(N4CCN(CC5=C(c6ccc(Cl)cc6)CC(C)(C)CC5)CC4)cc3Oc3ccccc3Cl)cc2[N+](=O)[O-])CC1` [Example 41, 2-(2-chlorophenoxy)-4-(4-((2-(4-chlorophenyl)-4,4-dimethylcyclohex-1-en-1-yl)methyl)piperazin-1-yl)-N-((4-((1-isopropylpiperidin-4-yl)amino)-3-nitrophenyl)sulfonyl)benzamide] gave a Ki of 0.027 nM.

For the compound `CC1(C)CC(c2ccc(Cl)cc2)=C(CN2CCN(c3ccc(C(=O)NS(=O)(=O)c4ccc(NC5CCC(N6CCOCC6)CC5)c([N+](=O)[O-])c4)c(Oc4cc5cc[nH]c5cc4F)c3)CC2)CO1` (stereo not drawn) [Example 295, 4-(4-{[4-(4-chlorophenyl)-6,6-dimethyl-5,6-dihydro-2H-pyran-3-yl]methyl}piperazin-1-yl)-2-[(6-fluoro-1H-indol-5-yl)oxy]-N-({4-[(4-morpholin-4-ylcyclohexyl)amino]-3-nitrophenyl}sulfonyl)benzamide], the affinity corresponds to a Ki of 0.077 nM.

Compound `CC1(C)CCC(CN2CCN(c3ccc(C(=O)NS(=O)(=O)c4ccc(NC5CCN(C6CCOCC6)CC5)c([N+](=O)[O-])c4)c(Oc4cccc5[nH]c(C(F)(F)F)cc45)c3)CC2)=C(c2ccc(Cl)cc2)C1` [Example 215, 4-(4-{[2-(4-chlorophenyl)-4,4-dimethylcyclohex-1-en-1-yl]methyl}piperazin-1-yl)-N-({3-nitro-4-[(1-tetrahydro-2H-pyran-4-ylpiperidin-4-yl)amino]phenyl}sulfonyl)-2-{[2-(trifluoromethyl)-1H-indol-4-yl]oxy}benzamide] registered a Ki of 2.95 nM.

`C=CCN1CCC(Nc2ccc(S(=O)(=O)NC(=O)c3ccc(N4CCN(CC5=C(c6ccc(Cl)cc6)CC(C)(C)CC5)CC4)cc3Oc3cccc(F)c3F)cc2[N+](=O)[O-])CC1` [Example 146, N-({4-[(1-allylpiperidin-4-yl)amino]-3-nitrophenyl}sulfonyl)-4-(4-{[2-(4-chlorophenyl)-4,4-dimethylcyclohex-1-en-1-yl]methyl}piperazin-1-yl)-2-(2,3-difluorophenoxy)benzamide]: the Ki came out at 0.04 nM. Compared with the last compound, the Ki is about 74-fold lower.

`CN1CCC(Nc2ccc(S(=O)(=O)NC(=O)c3ccc(N4CCN(CC5=C(c6ccc(Cl)cc6)CC(C)(C)CC5)CC4)cc3Oc3cccc4c3ccn4C(=O)OC(C)(C)C)cc2[N+](=O)[O-])CC1` [Example 202, tert-butyl 4-(5-(4-{[2-(4-chlorophenyl)-4,4-dimethylcyclohex-1-en-1-yl]methyl}piperazin-1-yl)-2-{[({4-[(1-methylpiperidin-4-yl)amino]-3-nitrophenyl}sulfonyl)amino]carbonyl}phenoxy)-1H-indole-1-carboxylate] registered a Ki of 20 nM.

The compound `CN1CCN(Nc2ccc(S(=O)(=O)NC(=O)c3ccc(N4CCN(CC5=C(c6ccc(Cl)cc6)CC(C)(C)CC5)CC4)cc3Oc3ccc4[nH]cc(CCN)c4c3)cc2[N+](=O)[O-])CC1` [Example 300, 2-{[3-(2-aminoethyl)-1H-indol-5-yl]oxy}-4-(4-{[2-(4-chlorophenyl)-4,4-dimethylcyclohex-1-en-1-yl]methyl}piperazin-1-yl)-N-({4-[(4-methylpiperazin-1-yl)amino]-3-nitrophenyl}sulfonyl)benzamide] registered a Ki of 13.7 nM.

`CC1(C)CCC(CN2CCN(c3ccc(C(=O)NS(=O)(=O)c4ccc(NC5CCN(C6CCOCC6)CC5)c([N+](=O)[O-])c4)c(Oc4ccc5nc(N)sc5c4)c3)CC2)=C(c2ccc(Cl)cc2)C1` [Example 232, 2-[(2-amino-1,3-benzothiazol-6-yl)oxy]-4-(4-{[2-(4-chlorophenyl)-4,4-dimethylcyclohex-1-en-1-yl]methyl}piperazin-1-yl)-N-({3-nitro-4-[(1-tetrahydro-2H-pyran-4-ylpiperidin-4-yl)amino]phenyl}sulfonyl)benzamide] registered a Ki of 1.05 nM. This Ki is about 13-fold lower than that of the compound before.

Consider `O=C(NS(=O)(=O)c1ccc(NCC2CCOCC2)c([N+](=O)[O-])c1)c1ccc(N2CCN(Cc3cc(CCN4CCCC4)ccc3-c3ccc(Cl)cc3)CC2)cc1Oc1cccc(Cl)c1` [Example 53, 2-(3-chlorophenoxy)-4-(4-((4′-chloro-4-(2-pyrrolidin-1-ylethyl)-1,1′-biphenyl-2-yl)methyl)piperazin-1-yl)-N-((3-nitro-4-((tetrahydro-2H-pyran-4-ylmethyl)amino)phenyl)sulfonyl)benzamide], for which affinity was put at a Ki of 0.077 nM.

Regarding `CC(=O)Nc1ccc(Oc2cc(N3CCN(Cc4ccccc4-c4ccc(Cl)cc4)CC3)ccc2C(=O)NS(=O)(=O)c2ccc(NCC3CCOCC3)c([N+](=O)[O-])c2)cc1` [Example 82, 2-(4-(acetylamino)phenoxy)-4-(4-((4′-chloro-1,1′-biphenyl-2-yl)methyl)piperazin-1-yl)-N-((3-nitro-4-((tetrahydro-2H-pyran-4-ylmethyl)amino)phenyl)sulfonyl)benzamide], the inhibition constant Ki came out at 512 nM.

`CN1CCC(Nc2ccc(S(=O)(=O)NC(=O)c3ccc(N4CCN(CC5=C(c6ccc(Cl)cc6)CC(C)(C)CC5)CC4)cc3Oc3ccccc3C(=O)N(C)C)cc2[N+](=O)[O-])CC1` [Example 214, 2-(5-(4-((2-(4-chlorophenyl)-4,4-dimethylcyclohex-1-enyl)methyl)piperazin-1-yl)-2-(4-(1-methylpiperidin-4-ylamino)-3-nitrophenylsulfonylcarbamoyl)phenoxy)-N,N-dimethylbenzamide] showed a Ki of 0.221 nM.

With `Cc1cc2cc(Oc3cc(N4CCN(CC5=C(c6ccc(Cl)cc6)CC(C)(C)CC5)CC4)ccc3C(=O)NS(=O)(=O)c3ccc(NC4CCN(C)CC4)c([N+](=O)[O-])c3)ccc2[nH]1` [Example 3, 4-(4-((2-(4-chlorophenyl)-4,4-dimethylcyclohex-1-en-1-yl)methyl)piperazin-1-yl)-2-((2-methyl-1H-indol-5-yl)oxy)-N-((4-((1-methylpiperidin-4-yl)amino)-3-nitrophenyl)sulfonyl)benzamide], the Ki was 0.827 nM. Compared with the last compound, the Ki is about 3.7-fold higher.

`CC1(C)CCC(CN2CCN(c3ccc(C(=O)NS(=O)(=O)c4ccc(NC5CCN(C6CC6)CC5)c([N+](=O)[O-])c4)c(Oc4cccc(Cl)c4)c3)CC2)=C(c2ccc(Cl)cc2)C1` [Example 119, 2-(3-chlorophenoxy)-4-(4-{[2-(4-chlorophenyl)-4,4-dimethylcyclohex-1-en-1-yl]methyl}piperazin-1-yl)-N-({4-[(1-cyclopropylpiperidin-4-yl)amino]-3-nitrophenyl}sulfonyl)benzamide] showed a Ki of 0.156 nM.

With `CC1(C)CCC(CN2CCN(c3ccc(C(=O)NS(=O)(=O)c4ccc(N[C@@H]5CCN(CC(F)F)C5)c([N+](=O)[O-])c4)c(Oc4cnc(N)c(Cl)c4)c3)CC2)=C(c2ccc(Cl)cc2)C1` [Example 353, 2-[(6-amino-5-chloropyridin-3-yl)oxy]-4-(4-{[2-(4-chlorophenyl)-4,4-dimethylcyclohex-1-en-1-yl]methyl}piperazin-1-yl)-N-[(4-{[(3R)-1-(2,2-difluoroethyl)pyrrolidin-3-yl]amino}-3-nitrophenyl)sulfonyl]benzamide], the Ki is 0.016 nM.

In turn, `CC1(C)CCC(CN2CCN(c3ccc(C(=O)NS(=O)(=O)c4ccc(NCC5CCC(F)(F)CC5)c([N+](=O)[O-])c4)c(Oc4cnc(N)c(Cl)c4)c3)CC2)=C(c2ccc(Cl)cc2)C1` [Example 396, 2-[(6-amino-5-chloropyridin-3-yl)oxy]-4-(4-{[2-(4-chlorophenyl)-4,4-dimethylcyclohex-1-en-1-yl]methyl}piperazin-1-yl)-N-[(4-{[(4,4-difluorocyclohexyl)methyl]amino}-3-nitrophenyl)sulfonyl]benzamide] gave a Ki of less than 0.01 nM.

The compound `CC1(C)CCC(CN2CCN(c3ccc(C(=O)NS(=O)(=O)c4ccc(NC5CCN(CCN6CCOCC6)CC5)c([N+](=O)[O-])c4)c(Oc4cccc(Cl)c4)c3)CC2)=C(c2ccc(Cl)cc2)C1` [Example 190, 2-(3-chlorophenoxy)-4-(4-{[2-(4-chlorophenyl)-4,4-dimethylcyclohex-1-en-1-yl]methyl}piperazin-1-yl)-N-[(4-{[1-(2-morpholin-4-ylethyl)piperidin-4-yl]amino}-3-nitrophenyl)sulfonyl]benzamide] showed a Ki of 0.077 nM.
